Data as given in PMC11078990, “Identification and characterization of small molecule inhibitors of the LINE-1 retrotransposon endonuclease” (Nature Communications, 2024).
Where “and” joins values, the source holds several entries; their conditions need not be identical. Equal entries are not always repeated. Where two headings read alike, the source gives them in different places.

Experiments:
APE1 = target: T1, APE1 (Homo sapiens, UniProt P27695); assay: APE1 fluorescent oligonucleotide activity assay (abasic site substrate); format: biochemical; conditions: for activity at 25 µM: read-out: APE1 activity (%)
T1 construct: purchased New England Biolabs (NEB) M0282S

L1 retrotransposition = assay: HeLa dual-luciferase L1 retrotransposition assay; format: cell-based, human
[1] = test system: substrate oligonucleotide used in the EN activity assay; format: binding; parameters: key to Binding Detected? (Y/N): Binding Detected? (Y/N); Binding Detected? (Y/N)
[2] = target: L1 EN (LINE-1 retrotransposon endonuclease domain) (Homo sapiens, UniProt O00370, N5T); assay: Fluorescent oligonucleotide EN nicking activity assay; format: biochemical
HeLa Tet-On cells = conditions: human
[3] = compound at 25 μM, average of 3 replicates
[4] = inhibitors at 25 μM, relative to 0 μM inhibitor control, mean ± s.d., 3 independent experiments
[5] = [Inhibitor] 1 μM, technical replicates 1-3, Fig. 2b source data, 1 µM
[6] = [Inhibitor] 5 μM, technical replicates 1-3, Fig. 2b source data, 5 µM
[7] = [Inhibitor] 10 μM, technical replicates 1-3, Fig. 2b source data, 10 µM
[8] = [Inhibitor] 10 μM, technical replicates 1-3, Fig. 2b source data, read-out: EN activity, percent of no inhibitor control
[9] = [Inhibitor] 25 μM, technical replicates 1-3, Fig. 2b source data, 25 µM
[10] = [Inhibitor] 25 μM, technical replicates 1-3, Fig. 2b source data, read-out: EN activity, percent of no inhibitor control
[11] = [Inhibitor] 50 μM, technical replicates 1-3, Fig. 2b source data, 50 µM
[12] = [Inhibitor] 50 μM, technical replicates 1-3, Fig. 2b source data, read-out: EN activity, percent of no inhibitor control
[13] = [Inhibitor] 100 μM, technical replicates 1-3, Fig. 2b source data, 100 µM
[14] = [Inhibitor] 250 μM, technical replicates 1-3, Fig. 2b source data, 250 µM
[15] = read-out: EN activity, percent of no inhibitor control

Chain of L1 EN (LINE-1 retrotransposon endonuclease domain) (O00370 1-239 N5T): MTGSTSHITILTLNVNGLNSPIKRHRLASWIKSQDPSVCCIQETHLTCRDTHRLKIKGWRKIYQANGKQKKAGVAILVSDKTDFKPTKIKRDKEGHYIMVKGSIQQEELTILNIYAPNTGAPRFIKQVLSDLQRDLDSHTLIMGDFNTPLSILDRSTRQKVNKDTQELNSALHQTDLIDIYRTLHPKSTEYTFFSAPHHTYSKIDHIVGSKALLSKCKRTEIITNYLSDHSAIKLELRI

O=C(Nc1ccc(S(=O)(=O)NCc2ccco2)cc1)c1cc(NS(=O)(=O)c2cccs2)cc(NS(=O)(=O)c2cccs2)c1 [AD18]
APE1 percent activity, Replicate 1 (APE1; compound at 25 μM, Replicate 1): 95.6087% | APE1 percent activity, Replicate 2 (APE1; compound at 25 μM, Replicate 2): 100.395% | APE1 percent activity, Replicate 3 (APE1; compound at 25 μM, Replicate 3): 113.415% | APE1 percent activity, average (APE1; [3]): 103.14% | activity at 25 µM (APE1; [4]): 103 ± 9.2% | Effect on L1 retrotransposition (L1 retrotransposition; HeLa cells): did not significantly impact retrotransposition | Binding Detected? (Y/N) [1]: N | EN activity, percent of no inhibitor control [2, 5]: 113.77% and 114.319% | remaining activity at 1 µM ([2]; [Inhibitor] 1 μM, technical replicates 1-3, Fig. 2b source data, read-out: EN activity, percent of no inhibitor control): 128% | EN activity, percent of no inhibitor control [2, 6]: 110.276% and 111.074% | remaining activity at 5 µM ([2]; [Inhibitor] 5 μM, technical replicates 1-3, Fig. 2b source data, read-out: EN activity, percent of no inhibitor control): 98.7% | EN activity, percent of no inhibitor control [2, 7]: 114.402% and 118.423% | remaining activity at 10 µM [2, 8]: 107% | EN activity, percent of no inhibitor control [2, 9]: 99.7158% and 102.855% | remaining activity at 25 µM [2, 10]: 118% | EN activity, percent of no inhibitor control [2, 11]: 87.6677% and 95.4608% | remaining activity at 50 µM [2, 12]: 82% | EN activity, percent of no inhibitor control [2, 13]: 45.2675% and 31.8714% | remaining activity at 100 µM ([2]; [Inhibitor] 100 μM, technical replicates 1-3, Fig. 2b source data, read-out: EN activity, percent of no inhibitor control): 46.3% | EN activity, percent of no inhibitor control [2, 14]: -2.192% and 4.074% and 1.188% | EN activity, percent of no inhibitor control ([2]; [Inhibitor] 500 μM, technical replicates 1-3, Fig. 2b source data, 500 µM): 1.364% and -0.7511% and -2.792% | EN activity, percent of no inhibitor control ([2]; [Inhibitor] 1000 μM, technical replicates 1-3, Fig. 2b source data, 1000 µM): 4.465% and 5.692% | remaining activity at 1000 µM ([2]; [Inhibitor] 1000 μM, technical replicates 1-3, Fig. 2b source data, read-out: EN activity, percent of no inhibitor control): 3.32%

COc1ccc([N+](=O)[O-])cc1NC(=O)c1ccc2c(c1)N(Cc1cc(C)ccc1C)C(=O)c1ccccc1S2(=O)=O [AD34]
APE1 percent activity, Replicate 1 (APE1; compound at 25 μM, Replicate 1): 115.867% | APE1 percent activity, Replicate 2 (APE1; compound at 25 μM, Replicate 2): 110.244% | APE1 percent activity, Replicate 3 (APE1; compound at 25 μM, Replicate 3): 115.389% | APE1 percent activity, average (APE1; [3]): 113.833% | activity at 25 µM (APE1; [4]): 114 ± 3.1% | Effect on L1 retrotransposition (L1 retrotransposition; HeLa cells): did not significantly impact retrotransposition | Binding Detected? (Y/N) [1]: N | EN activity, percent of no inhibitor control [2, 5]: 107.144% and 82.3328% (2×) | EN activity, percent of no inhibitor control [2, 6]: 106.747% and 72.7727% (2×) | EN activity, percent of no inhibitor control [2, 7]: 61.3218% | remaining activity at 10 µM [2, 8]: 63.6% | EN activity, percent of no inhibitor control [2, 9]: 17.0147% | remaining activity at 25 µM [2, 10]: 13.4% | EN activity, percent of no inhibitor control [2, 11]: 2.345% | remaining activity at 50 µM [2, 12]: 1.88% | EN activity, percent of no inhibitor control [2, 13]: -0.6009% and -1.977% (2×) | EN activity, percent of no inhibitor control [2, 14]: 6.512% | remaining activity at 250 µM ([2]; [Inhibitor] 250 μM, technical replicates 1-3, Fig. 2b source data, read-out: EN activity, percent of no inhibitor control): 4.89%

Cc1cc(=O)oc2c3c(ccc12)O/C(=N/Nc1ccc([N+](=O)[O-])cc1[N+](=O)[O-])C3=O [AD5]
APE1 percent activity, Replicate 1 (APE1): 111.351% | APE1 percent activity, Replicate 2 (APE1): 107.526% | APE1 percent activity, Replicate 3 (APE1): 109.094% | APE1 percent activity, average (APE1): 109.324% | activity at 25 µM (APE1): 109 ± 1.9% | Effect on L1 retrotransposition (L1 retrotransposition): did not significantly impact retrotransposition | Luciferase (retrotransposition), average (L1 retrotransposition): 7.139 | Luciferase (retrotransposition), replicates (L1 retrotransposition): 5.447 and 9.3633 and 6.616 and 7.129 | Binding Detected? (Y/N) [1]: N | PrestoBlue (viability), average (HeLa Tet-On cells): 15.98 | EN activity, percent of no inhibitor control ([2]; 0.5 µM): 83.4432% and 74.5276% | EN activity, percent of no inhibitor control ([2]; 2 µM): 70.978% and 73.9003% | EN activity, percent of no inhibitor control ([2]; 5 µM): 74.0185% and 75.6649% | EN activity, percent of no inhibitor control ([2]; 10 µM): 77.2953% and 59.874% and 46.95% | EN activity, percent of no inhibitor control ([2]; 25 µM): 51.0006% and 46.7642% | EN activity, percent of no inhibitor control ([2]; 100 µM): 9.806% and 12.2088% | EN activity, percent of no inhibitor control ([2]; 250 µM): 10.849% and 15.1279% | EN activity, percent of no inhibitor control ([2]; 500 µM): 8.917% and 12.6828% | remaining activity at 0.5 µM [2, 15]: 82.5% | remaining activity at 2 µM [2, 15]: 78.9% | remaining activity at 5 µM [2, 15]: 74.7% | remaining activity at 25 µM [2, 15]: 46.1% | remaining activity at 100 µM [2, 15]: 7.29% | remaining activity at 250 µM [2, 15]: 12% | remaining activity at 500 µM [2, 15]: 9.9%
